We go through 44 compounds from US8143419B2, “Trisubstituted 1,2,4-triazoles” (Janssen Pharmaceutica N. V., priority 2006, dated 2012).

Each structure is given as a SMILES string. Where only a bound is given, the exact number is not on record here.

Data set [1] deals with T1, hα7-wt nAChR (Homo sapiens, UniProt P36544).
T1 construct: expressed in transfected cells
Put plainly: Ca2+ flux imaging (FDSS) (Protocol B), PAM activity with choline as agonist. As to conditions: for EC50: "<5" = no top plateau at maximal concentration; for Emax: read-out: % efficacy. The class given is cell-based. Here is the method:
• Hanks buffered saline solution (HBSS, Invitrogen, Belgium), supplemented with 10 mM HEPES (Invitrogen, Belgium), CaCl2 to a final concentration of 5 mM, 0.1% Bovine serum albumin (Sigma-Aldrich NV, Belgium). b) Calcium-Sensitive Dye—Fluo-4AM • Fluo-4AM (Molecular Probes, USA) was dissolved in DMSO containing 10% Pluronic acid (Molecular Probes, USA) to give a stock solution which was diluted in assay buffer supplemented with 5 mM probenicid (Sigma, Aldrich NV, Belgium) to give a final concentration of 2 μM. c) 384-Well Plates • Black 384 well plate black/clear plates, PDL pre-coated (Corning, Incorporated, USA) d) Calcium Flux Measurement
A Functional drug screening system (FDSS, Hamamatsu) was used to measure intracellular free-calcium flux signals.
Monolayers of hα7-wt nAChR-expressing cells were grown in multi-well plates, in particular black-sided, transparent bottomed 384 well plates coated with poly-D-lysine for 24 hours prior to loading with a fluorescent calcium indicator, in a particular embodiment loading with fluo-4AM for up to 120 minutes.
PAM activity was detected in real time by applying the compounds to be tested to the loaded cells along with a α7 nicotinic receptor agonist during constant monitoring of cellular fluorescence in a FDSS. Compounds giving peak fluorescent responses greater than the response due to agonist alone, were considered to be α7 nAChR PAM's. In a particular embodiment, the α7 nicotinic receptor agonist was choline, a more particular embodiment choline applied at a sub-maximal concentration of 100 μM. In a further setting of the present invention the compounds to be tested were applied prior to the α7 nicotinic receptor agonist, in a particular embodiment up to 10 minutes prior to the agonist.
A control response to choline was calculated on each plate from the difference in peak in fluorescence in wells receiving either choline or assay buffer alone. Compounds of the present invention were tested at a concentration range from 0.01 μM to 30 μM. Compounds were considered to have an interesting activity when they potentiated the choline signal at least with 500% when tested at a concentration of 30 μM (the efficacy of 100 μM choline was defined as 100% in the absence of a PAM). The compounds also have a potentiating effect on the response to choline when measured by whole-cell patch clamp electrophysiology in GH4C1 cells stably over-expressing the human wild-type α7 receptor.
A general note: A change in cytosolic calcium serves as a functional read-out for many receptors and channels.

T1 sequence (P36544 23-502): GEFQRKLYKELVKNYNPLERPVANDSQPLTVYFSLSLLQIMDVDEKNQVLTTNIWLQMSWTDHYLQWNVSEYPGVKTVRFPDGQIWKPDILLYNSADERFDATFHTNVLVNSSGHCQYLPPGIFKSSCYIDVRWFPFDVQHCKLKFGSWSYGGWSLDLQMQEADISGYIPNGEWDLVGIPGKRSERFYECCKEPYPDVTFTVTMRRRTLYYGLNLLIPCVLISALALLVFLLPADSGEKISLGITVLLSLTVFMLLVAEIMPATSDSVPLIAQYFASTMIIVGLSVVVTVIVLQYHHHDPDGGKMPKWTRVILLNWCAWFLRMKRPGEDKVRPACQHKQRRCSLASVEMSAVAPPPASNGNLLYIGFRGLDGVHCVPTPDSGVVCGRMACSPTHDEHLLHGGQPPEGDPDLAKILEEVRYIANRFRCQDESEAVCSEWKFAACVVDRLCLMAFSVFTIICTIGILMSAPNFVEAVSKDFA

With `CC(C)NC(=O)Cn1nc(Nc2cccc(C(F)(F)F)c2)nc1-c1ccc2c(c1)OCCO2` [Compound 5], the melting point (usually the temperature, or range, at which the solid turns liquid) lay within 213.9 to 215 °C. The EC50 (commonly the midpoint of the concentration-response curve) in data set [1] was 200 nM.

`Cc1nc(CCn2nc(Nc3ccc(F)c(C(F)(F)F)c3)nc2-c2ccnc(Cl)c2)no1` [Compound 56] came in with a melting point of 117.4 °C. For the same compound, in data set [1], the concentration for a half-maximal effect (EC50) was 1260 nM and the Emax was found to be 717%.

For `Cc1cc(-c2nc(Nc3ccc4c(c3)OC(F)(F)O4)nn2CC(=O)NC2CCOC2)ccn1` (centres unmarked) [Compound 208], the melting point was determined as 253.8 °C. Further, in data set [1], the EC50 is 5010 nM and the Emax is 909%.

`CCNC(=O)Cn1nc(Nc2ccc3c(c2)OC(F)(F)O3)nc1-c1ccnc2c1CCC2` [Compound 204] displayed a melting point of 260.1 °C. Further, the EC50 in data set [1] is 631 nM.

As for `O=C(Cn1nc(Nc2ccc(F)c(C(F)(F)F)c2)nc1-c1ccnc(CO)c1)NC1CC1` [Compound 61], the melting point was found to be 242.2 °C. Moreover, the EC50 in data set [1] is 5010 nM.

`COc1ncccc1-c1nc(Nc2ccc(F)c(C(F)(F)F)c2)nn1CC(=O)NC1CC1` [Compound 121] had a melting point of 242.4 °C. The EC50 in data set [1] was 2510 nM.

Take `CCOC(=O)NCCn1nc(Nc2ccc(F)c(C(F)(F)F)c2)nc1-c1ccnc(C2CC2)c1` [Compound 140]: the melting point is 147.2 °C. For the same compound, the EC50 in data set [1] was 631 nM.

Consider `CNC(=O)Cn1nc(Nc2cccc(C(F)(F)F)c2)nc1-c1ccncc1` [Compound 9], for which the melting point lay within 212.9 to 214 °C. The EC50 in data set [1] is > 10000 nM.

Regarding `CC(=O)CCn1nc(Nc2cccc(C(F)(F)F)c2)nc1-c1ccnc(C)c1` [Compound 47], the melting point is 138.1 °C. In addition, the EC50 in data set [1] is > 10000 nM.

`CNC(=O)Cn1nc(Nc2cc(OC)cc(C(F)(F)F)c2)nc1-c1ccnc(NC)c1` [Compound 146]: the melting point is 241.1 °C. In addition, the EC50 in data set [1] was 1000 nM.

With `COc1ccc(Nc2nc(-c3ccncc3)n(CCO)n2)cc1C(F)(F)F` [Compound 143], the melting point is 240.4 °C. In addition, the EC50 in data set [1] is 2000 nM.

`COc1ccc(Nc2nc(-c3ccnc(C)c3)n(CCC(=O)N(C)C)n2)cc1C(F)(F)F` [Compound 144] yielded a melting point of 177.2 °C. Further, the EC50 in data set [1] was 200 nM.

As for `CNC(=O)Cn1nc(Nc2ccnc(C(F)(F)F)c2)nc1-c1ccc2c(c1)OCCO2` [Compound 212], the melting point lay in the range of 214.2 to 223.5 °C. For the same compound, the EC50 in data set [1] was 1260 nM.

As to `CNC(=O)Cn1nc(Nc2ccc(F)c(C(F)(F)F)c2)nc1-c1ccncc1NC` [Compound 114], the melting point is 260.8 °C. The EC50 in data set [1] is 631 nM.

Consider `Cc1cc(-c2nc(Nc3cccc(OC(F)(F)F)c3)nn2CC(C)O)ccn1` (centres unmarked) [Compound 148], for which the melting point is 130.9 °C. In data set [1], the EC50 was 5010 nM.

As for `CNc1ccc(-c2nc(Nc3cc(F)c(F)cc3F)nn2CCC(=O)N(C)C)cn1` [Compound 189], the melting point turned out to be 166.7 °C. In addition, in data set [1], the EC50 is 794 nM.

In turn, `COc1cc(Nc2nc(-c3ccnc(C)c3)n(CCC(=O)N(C)C)n2)cc(F)c1F` [Compound 188] returned a melting point of 199.8 °C. Moreover, the EC50 in data set [1] is 794 nM.

Compound `CN(C)C(=O)CCn1nc(Nc2cc(F)c(F)cc2F)nc1-c1ccc(NC2CC2)nc1` [Compound 193] returned a melting point of 158.2 °C. Besides, the EC50 in data set [1] was 794 nM.

With `CNC(=O)Cn1nc(Nc2ccc(F)c(C(F)(F)F)c2)nc1-c1ccc(NCCOC)nc1` [Compound 115], the melting point is 207.1 °C. In addition, the EC50 in data set [1] was > 10000 nM.

`CCNC(=O)Cn1nc(Nc2cc(F)c(F)c(NCC)c2)nc1-c1ccnc(NCC)c1` [Compound 181] had a melting point of 192.8 °C. Besides, in data set [1], the EC50 was 794 nM.

On to `CCNc1ccc(-c2nc(Nc3ccc(F)c(C(F)(F)F)c3)nn2CCC(=O)N(C)C)cn1` [Compound 130], for which the melting point amounted to 201.1 °C. The EC50 in data set [1] was 100 nM.

The compound `C[C@H](O)Cn1nc(Nc2ccc(F)c(C(F)(F)F)c2)nc1-c1ccnc(NCC2CC2)c1` [Compound 104] showed a melting point of 145.8 °C. Moreover, the EC50 in data set [1] is 3160 nM.

With `CNC(=O)Cn1nc(Nc2cccc(C(F)(F)F)c2)nc1-c1ccc2c(c1)OCCO2` [Compound 1], the melting point fell in the range of 206.2 to 207.1 °C. Besides, in data set [1], the EC50 was 251 nM.

Compound `COc1ccc(-c2nc(Nc3ccc(F)c(C(F)(F)F)c3)nn2CC(=O)NC(C)C)c(OC)c1` [Compound 119] had a melting point of 215 to 219.2 °C. For the same compound, in data set [1], the EC50 is 794 nM and the Emax was determined as 974%.

As for `COc1cc(-c2nc(Nc3cccc(C(F)(F)F)c3)nn2CCC(=O)N(C)C)cc(Cl)n1` [Compound 84], the melting point was 177.7 °C. In addition, in data set [1], the EC50 was 316 nM.

`C[C@H](O)Cn1nc(Nc2ccc(F)c(F)c2)nc1-c1ccc(C(=O)N2CCCC2)nc1` [Compound 174] gave a melting point of 181.7 °C. Moreover, in data set [1], the EC50 is > 10000 nM and the Emax was determined as 667%.

The compound `CNC(=O)Cn1nc(Nc2cc(F)c(F)c(NC)c2)nc1-c1ccnc(NC)c1` [Compound 35] displayed a melting point of 221.6 °C. Also, the EC50 in data set [1] was > 10000 nM.

In turn, `Cc1cc(-c2nc(Nc3ccc(F)c(F)c3)nn2CCC(=O)N(C)C)ccn1` [Compound 185] registered a melting point of 181.3 °C. Further, the EC50 in data set [1] is 1000 nM.

Compound `Cc1cc(-c2nc(Nc3ccc(F)c(C(F)(F)F)c3)nn2CCCC(=O)N(C)C)ccn1` [Compound 42] showed a melting point of 146.9 °C. Also, the EC50 in data set [1] was 1000 nM.

`O=C(CCn1nc(Nc2cccc(C(F)(F)F)c2)nc1-c1ccncc1)N1CCCC1` [Compound 85] displayed a melting point of 182.2 °C. For the same compound, the concentration giving a half-maximal response (EC50) in data set [1] is 316 nM.

`COc1cccc(-c2nc(Nc3cccc(OC(F)(F)F)c3)nn2CC(=O)NC2CC2)c1` [Compound 162] had a melting point of 196.5 to 206.2 °C. Moreover, the EC50 in data set [1] was 79.4 nM.

In the case of `CNC(=O)Cn1nc(Nc2ccc(F)c(C(F)(F)F)c2)nc1-c1ccc(OC)nc1` [Compound 110], the melting point was found to be 255.1 °C. In data set [1], the EC50 was 126 nM.

For the compound `CN(C)C(=O)CCn1nc(Nc2ccc3c(c2)OC(F)(F)O3)nc1-c1ccncc1` [Compound 33], the melting point came out at 216.4 °C. Moreover, the EC50 in data set [1] is 631 nM.

With `CNC(=O)Cn1nc(Nc2cc(F)c(F)c(F)c2)nc1-c1ccnc(NC)c1` [Compound 36], the melting point was 277.5 °C. Also, the EC50 in data set [1] was 2510 nM.

As for `COCc1cc(-c2nc(Nc3ccc(F)c(C(F)(F)F)c3)nn2CC(=O)NC2CC2)ccn1` [Compound 62], the melting point is 204.6 °C. Moreover, the EC50 in data set [1] was 316 nM.

Consider `CCNC(=O)Cn1nc(Nc2ccc(F)c(C(F)(F)F)c2)nc1-c1ccncc1C` [Compound 118], for which the melting point was determined as 238.6 °C. For the same compound, the EC50 in data set [1] is 794 nM.

In the case of `CN(C)c1cc(-c2nc(Nc3cccc(C(F)(F)F)c3)nn2CCO)ccn1` [Compound 75], the melting point was found to be 164.2 °C. For the same compound, the EC50 in data set [1] was 2510 nM.

As to `Cc1cc(-c2nc(Nc3ccc4c(c3)OC(F)(F)O4)nn2CC(=O)NCC2CC2)ccn1` [Compound 26], the melting point was found to be 227.2 °C. Further, the EC50 in data set [1] was 794 nM.

`CC(=O)c1cc(-c2nc(Nc3ccc(F)c(C(F)(F)F)c3)nn2CC(=O)NC2CC2)ccn1` [Compound 123] gave a melting point of 213.2 °C. In addition, the EC50 in data set [1] is 1260 nM.

In turn, `CN(C)C(=O)CCn1nc(Nc2ccc(F)c(C(F)(F)F)c2)nc1-c1ccc(C2CC2)nc1` [Compound 132] gave a melting point of 177.3 °C. Moreover, in data set [1], the 50% effective concentration (EC50) is 15.8 nM.

With `Cc1cc(-c2nc(Nc3ccc4c(c3)OC(F)(F)O4)nn2CCC(=O)N(C)C)cc(C)n1` [Compound 209], the melting point was determined as 182.2 °C. The EC50 in data set [1] was 398 nM.

`Cc1cc(-c2nc(Nc3ccc(F)c(C#N)c3)nn2CCC(=O)N(C)C)ccn1` [Compound 186] came in with a melting point of 203.9 °C. In data set [1], the concentration for a half-maximal effect (EC50) is 398 nM.

Compound `CN(C)C(=O)CCn1nc(Nc2ccc(F)c(F)c2)nc1-c1ccc(C(F)(F)F)nc1` [Compound 191] returned a melting point of 194.4 °C. Moreover, the EC50 in data set [1] is 1260 nM.

Consider `Cc1cc(-c2nc(Nc3ccc4c(c3)OC(F)(F)O4)nn2CC(=O)NC2CCCC2)ccn1` [Compound 206], for which the melting point was 229.1 °C. Besides, in data set [1], the EC50 is 631 nM.
